Data as given in PubChem BioAssay (NCI).
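All cell lines were grown in 96-well plates and treated with compound for 48 hours. Abbreviation: GI50, concentration required for 50% inhibition of growth. TGI: total growth inhibition.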

Tests used:
Assay in all cases: DTP human tumour cell line panel, 48 h
[1] = test system: 786-0 renal
[2] = test system: RPMI-8226 leukemia
[3] = test system: OVCAR-8 ovarian
[4] = test system: ACHN renal
[5] = test system: SR leukemia
[6] = test system: U251 CNS
[7] = test system: OVCAR-4 ovarian
[8] = test system: HOP-62 NSCLC
[9] = test system: KM12 colon
[10] = test system: NCI-H460 lung
[11] = test system: CAKI-1 renal
[12] = test system: BT-549 breast
[13] = test system: HS 578T breast
[14] = test system: SNB-75 CNS
[15] = test system: SF-295 CNS
[16] = test system: A498 renal
[17] = test system: HT29 colon
[18] = test system: HCT-116 colon
[19] = test system: SW-620 colon
[20] = test system: UACC-62 melanoma
[21] = test system: RXF 393 renal
[22] = test system: UO-31 renal
[23] = test system: DU-145 prostate
[24] = test system: SN12C renal
[25] = test system: COLO 205 colon
[26] = test system: HCC-2998 colon
[27] = test system: UACC-257 melanoma
[28] = test system: NCI-H522 lung
[29] = test system: K-562 leukemia
[30] = test system: MDA-MB-468 breast
[31] = test system: SK-MEL-5 melanoma
[32] = test system: CCRF-CEM leukemia
[33] = test system: SF-268 CNS
[34] = test system: OVCAR-3 ovarian
[35] = test system: SK-OV-3 ovarian
[36] = test system: NCI-H226 lung
[37] = test system: NCI-H23 lung
[38] = test system: TK-10 renal
[39] = test system: MCF7 breast
[40] = test system: IGROV1 ovarian
[41] = test system: M14 melanoma
[42] = test system: MDA-MB-435
[43] = test system: HCT-15 colon
[44] = test system: LOX IMVI melanoma
[45] = test system: SK-MEL-28 melanoma
[46] = test system: MOLT-4 leukemia
[47] = test system: T-47D breast
[48] = test system: HL-60(TB) leukemia
[49] = test system: PC-3 prostate
[50] = test system: MDA-MB-231 breast
[51] = test system: MALME-3M melanoma
[52] = test system: HOP-92 NSCLC
[53] = test system: SK-MEL-2 melanoma
[54] = test system: A549 NSCLC
[55] = test system: SF-539 CNS
[56] = test system: OVCAR-5 ovarian
[57] = test system: EKVX NSCLC
[58] = test system: SNB-19 CNS

Work on `O=C(c1ccc(Cl)cc1)C1[C@H](c2ccccc2Br)[C@@H](c2ccccc2)NC12C(=O)Nc1ccc(Cl)cc12` (stereo partly specified) yielded a GI50 [1] of 9.38 µM, a TGI [1] of 18.8 µM and a GI50 [2] of 15.9 µM. For the same compound, the TGI [2] was 48.8 µM, the GI50 [3] was 9.6 µM and the TGI [3] was 18 µM. It also gave a GI50 [4] of 9.94 µM, a TGI [4] of 18.9 µM and a GI50 [5] of 13.5 µM. The TGI [5] was 32 µM, the GI50 [6] was 9.17 µM and the TGI [6] was 16.8 µM. For the same compound, the GI50 [7] was 11.8 µM, the TGI [7] was 28.5 µM and the GI50 [8] was 8.65 µM. The TGI [8] was 16.4 µM, the GI50 [9] was 11.5 µM and the TGI [9] was 25.2 µM. For the same compound, the GI50 [10] was 9.54 µM, the TGI [10] was 18.9 µM and the GI50 [11] was 8.96 µM. It also gave a TGI [11] of 17.4 µM, a GI50 [12] of 7.87 µM and a TGI [12] of 15.7 µM. For the same compound, the GI50 [13] was 11 µM, the TGI [13] was 27.1 µM and the GI50 [14] was 8.31 µM. For the same compound, the TGI [14] was 26.9 µM, the GI50 [15] was 9.14 µM and the TGI [15] was 18.9 µM. For the same compound, the GI50 [16] was 9.4 µM, the TGI [16] was 19.3 µM and the GI50 [17] was 9.35 µM. The TGI [17] was 18.5 µM, the GI50 [18] was 9 µM and the TGI [18] was 17.5 µM. For the same compound, the GI50 [19] was 9.58 µM, the TGI [19] was 19.2 µM and the GI50 [20] was 8.63 µM. For the same compound, the TGI [20] was 16 µM, the GI50 [21] was 8.4 µM and the TGI [21] was 16 µM. The GI50 [22] was 8.01 µM, the TGI [22] was 15.1 µM and the GI50 [23] was 11.1 µM. It also gave a TGI [23] of 22.4 µM, a GI50 [24] of 9.05 µM and a TGI [24] of 16.4 µM. The GI50 [25] was 9.34 µM, the TGI [25] was 17.3 µM and the GI50 [26] was 9.28 µM. The TGI [26] was 17.4 µM, the GI50 [27] was 8.88 µM and the TGI [27] was 16.7 µM. For the same compound, the GI50 [28] was 8.67 µM, the TGI [28] was 16.6 µM and the GI50 [29] was 18.5 µM. For the same compound, the TGI [29] was 52.8 µM, the GI50 [30] was 9.09 µM and the TGI [30] was 17.3 µM. For the same compound, the GI50 [31] was 9.44 µM, the TGI [31] was 16.9 µM and the GI50 [32] was 13.6 µM. It also gave a TGI [32] of 35.1 µM, a GI50 [33] of 10.8 µM and a TGI [33] of 25.4 µM. The GI50 [34] was 10.6 µM, the TGI [34] was 22.7 µM and the GI50 [35] was 12.4 µM. For the same compound, the TGI [35] was 34.4 µM, the GI50 [36] was 8.69 µM and the TGI [36] was 17.2 µM. It also gave a GI50 [37] of 10.1 µM, a TGI [37] of 19.4 µM and a GI50 [38] of 8.71 µM. It also gave a TGI [38] of 17 µM, a GI50 [39] of 11.6 µM and a TGI [39] of 27.9 µM. The GI50 [40] was 9.73 µM, the TGI [40] was 19.1 µM and the GI50 [41] was 9.65 µM. It also gave a TGI [41] of 18.3 µM, a GI50 [42] of 10.4 µM and a TGI [42] of 20.7 µM. For the same compound, the GI50 [43] was 10.2 µM, the TGI [43] was 20 µM and the GI50 [44] was 9.69 µM. The TGI [44] was 19 µM, the GI50 [45] was 8.66 µM and the TGI [45] was 16 µM. The GI50 [46] was 16 µM, the TGI [46] was 52.8 µM and the GI50 [47] was 9.06 µM. It also gave a TGI [47] of 18.2 µM, a GI50 [48] of 13.2 µM and a TGI [48] of 36.7 µM. The GI50 [49] was 9.87 µM, the TGI [49] was 20.1 µM and the GI50 [50] was 8.98 µM. For the same compound, the TGI [50] was 16.5 µM, the GI50 [51] was 8.67 µM and the TGI [51] was 16 µM. For the same compound, the GI50 [52] was 8.37 µM, the TGI [52] was 16.3 µM and the GI50 [53] was 9.22 µM. For the same compound, the TGI [53] was 16.9 µM, the GI50 [54] was 9.83 µM and the TGI [54] was 20.2 µM. The GI50 [55] was 9.17 µM, the TGI [55] was 17 µM and the GI50 [56] was 8.61 µM. For the same compound, the TGI [56] was 16 µM, the GI50 [57] was 10.6 µM and the TGI [57] was 26 µM. For the same compound, the GI50 [58] was 10.3 µM and the TGI [58] was 23.6 µM.
